Measured values published in article PMC8305236, “New Broth Macrodilution Volatilization Method for Antibacterial Susceptibility Testing of Volatile Agents and Evaluation of Their Toxicity Using Modified MTT Assay In Vitro” (Molecules, 2021).
≈ marks a conversion by molar mass, not a printed value. Read-outs that look alike come from different tables or passages of the source.

Experiments:
[1] = test system: normal lung fibroblast cells MRC-5; assay: modified MTT cytotoxicity assay; settings: for IC50: Homo sapiens, MRC5, 72 h, read-out: IC50 ± SD; for level of cytotoxic effect (WHO classification): classified by IC50 in lung fibroblast cells; for TI: therapeutic index, TI = IC80/x¯ -MIC
Method: (§1) Lung fibroblast cell line MRC-5, obtained from ATCC, was propagated in Eagle’s Minimum Essential Medium (EMEM) supplemented with 10% fetal bovine serum (FBS), 2 mM glutamine, 10 µL/mL non-essential amino acids, and 1% penicillin–streptomycin solution (10,000 units/mL of penicillin and 10 mg/mL of streptomycin); all these components were purchased from Sigma-Aldrich. The cells were pre-incubated in 96-well microtiter plates at a density of 2.5 × 10^3 cells per well for 24 h at 37 °C in a humidified incubator in an atmosphere of 5% CO2 in air.
(§2) A modified method based on the metabolization of MTT to blue formazan by mitochondrial dehydrogenases in living lung cells previously described by Mosmann was used. The lung fibroblast cells were treated for 72 h with the tested compounds dissolved in DMSO at a maximum concentration of 1% and diluted in the EMEM medium supplemented with 10% FBS. Twelve two-fold serially diluted concentrations of these agents ranging from 512 to 0.25 µg/mL were prepared. The microtiter plates were covered with EVA capmats^TM at 37 °C in a humidified atmosphere of 5% CO2 in air and cultivated for 72 h. Thereafter, MTT reagent (1 mg/mL) in EMEM solution was added to each well and the plates were incubated for an additional 2 h at 37 °C in a humidified atmosphere of 5% CO2 in air. The media were removed, and the intracellular formazan product was dissolved in 100 µL of DMSO. […] The absorbance was measured at 555 nm using a Tecan Infinite M200 spectrometer (Tecan Group, Mannedorf, Switzerland), and the viability was calculated in comparison to that of the untreated control. Three independent experiments (two replicates each) were performed for each test. […] Furthermore, IC80 was calculated as equivalent to the MIC endpoint for comparison of microbiological and toxicological data. Therapeutic indices (TIs) were defined as the ratio of x¯ -IC80 and x¯ -MIC values with the aim of determining the amount of effective antibacterial agents with the quantity causing toxicity.

oral microorganisms = test system: oral microorganisms; design: method as in PMID 27681039; settings: disc volatilization method; cited from earlier work
S. pneumoniae [2] = test system: S. pneumoniae; design: method as in PMID 31106894; settings: cited from earlier work
[3] = modified MTT cytotoxicity assay; settings: human
Method: as §1, §2

S. pyogenes = test system: S. pyogenes; design: method as in PMID 31106894; settings: cited from earlier work
[4] = test system: human lung cancer tissues; design: method as in PMID 25105411, doi:10.1177/1934578X1801301223, doi:10.15324/kjcls.2019.51.2.221; settings: various types of human lung cancer tissues; cited from earlier work
respiratory pathogens = assay: broth macrodilution volatilization method, all four bacteria together; type: cell-based; settings: mean value of minimal inhibitory concentrations in broth medium
Description: (§3) The following four bacterial standard strains from the American Type Culture Collection (ATCC, Manassas, VA, USA) were used: Haemophilus influenzae ATCC 49247, Staphylococcus aureus ATCC 29213, Streptococcus pneumoniae ATCC 49619, and Streptococcus pyogenes ATCC 19615. Cultivation and assay media (broth/agar) were Mueller–Hinton (MH) complemented by Haemophilus Tested Medium (H. influenzae), MH (S. aureus), and Brain Heart Infusion (S. pneumoniae and S. pyogenes). The pH of the broths was equilibrated to a final value of 7.6 using Trizma base (Sigma-Aldrich, Praha, Czech Republic). […] cultivation media were purchased from Oxoid (Basingstoke, UK).
(§4) Stock cultures of bacterial strains were cultivated in broth medium at 37 °C for 24 h prior to testing. For the preparation of inoculum, the turbidity of the bacterial suspension was adjusted to 0.5 McFarland standard using a Densi-La-Meter II (Lachema, Brno, Czech Republic) to obtain a final concentration of 10^8 CFU/mL.
The antibacterial potential of volatile plant-derived compounds in the liquid and vapor phases was determined using a newly developed broth macrodilution volatilization method performed in standard 2 mL microtubes with snap caps (Eppendorf, Hamburg, Germany). Initially, each sample of compound was dissolved in DMSO at maximum concentration of 1% and diluted in the appropriate broth medium. […] After incubation at 37 °C for 24 h, the MICs were evaluated by the visual assessment of bacterial growth after coloring metabolically active bacterial colonies with MTT dye. The respective volumes of 30 and 375 µL of MTT at a concentration of 600 µg/mL were pipetted into the caps and in the microtubes when the interface of color change from yellow to purple (relative to that of colors in control wells) was recorded in broth and agar (Figure 3c). […] The MIC values were determined as the lowest concentrations that inhibited bacterial growth compared with the compound-free control and are expressed in µg/mL. […]

[5] = test system: Streptococcus pyogenes ATCC 19615; assay: broth macrodilution volatilization method (liquid and vapor phase MIC); type: cell-based; settings: for MIC: Streptococcus pyogenes, ATCC19615
Description: as §3, §4
(§5) The antibacterial potential of volatile plant-derived compounds in the liquid and vapor phases was determined using a newly developed broth macrodilution volatilization method performed in standard 2 mL microtubes with snap caps (Eppendorf, Hamburg, Germany). Initially, each sample of compound was dissolved in DMSO at maximum concentration of 1% and diluted in the appropriate broth medium. […] The concentration of β-thujaplicin started from 1024 µg/mL and from 128 µg/mL for thymohydroquinone and thymoquninone. In the second step, 90 µL of melted agar was pipetted into rims on the caps (Figure 3a) and inoculated with 5 µL of bacterial suspension after agar solidification. Subsequently, the appropriate concentrations of each sample previously prepared in test tubes were pipetted into microtubes in a final volume of 1500 µL. Then, the microtubes were inoculated with 10 µL of bacterial suspension and closed properly (Figure 3b). Microtubes containing inoculated and non-inoculated media were prepared as growth and purity controls simultaneously. After incubation at 37 °C for 24 h, the MICs were evaluated by the visual assessment of bacterial growth after coloring metabolically active bacterial colonies with MTT dye. The respective volumes of 30 and 375 µL of MTT at a concentration of 600 µg/mL were pipetted into the caps and in the microtubes when the interface of color change from yellow to purple (relative to that of colors in control wells) was recorded in broth and agar (Figure 3c). […] The MIC values were determined as the lowest concentrations that inhibited bacterial growth compared with the compound-free control and are expressed in µg/mL. In the case of the vapor phase, the concentration was also expressed in µg/cm^3 as the weight of the volatile agent per volume unit of a microtube. […] The respective susceptibilities of H. influenzae, S. aureus, S. pneumoniae, and S. pyogenes to ampicillin, oxacillin, amoxicillin, and tetracycline were checked as positive antibiotic controls. All tests were performed as three independent experiments, each carried out in triplicate, and the results were presented as median/modal values. According to the widely accepted norm in MIC testing, the mode and median were used for the final value calculation when triplicate endpoints were within the two- and three-dilution ranges, respectively.

[6] = test system: Staphylococcus aureus ATCC 29213; assay: as above; type: cell-based
Description: as §3, §4, §5

[7] = test system: Streptococcus pneumoniae ATCC 49619; assay: as above; type: cell-based; settings: for MIC: Streptococcus pneumoniae, ATCC49619
Description: as §3, §4, §5

[8] = test system: Haemophilus influenzae ATCC 49247; assay: as above; type: cell-based
Description: as §3, §4, §5

S. aureus [9] = settings: cited from earlier work
S. pneumoniae [10] = test system: S. pneumoniae; design: method as in PMID 28223069; settings: cited from earlier work
[11] = test system: Trichophyton mentagrophytes; design: method as in PMID 16648950; settings: disc volatilization method; cited from earlier work
[12] = test system: healthy human lung MRC-5 cell lines; design: method as in PMID 28223069; settings: cited from earlier work
S. aureus [13] = test system: S. aureus; design: method as in PMID 28223069; settings: cited from earlier work
[14] = test system: normal IMR-90 lung fibroblasts; design: method as in PMID 20711342; settings: at a concentration of 32.84 µg/mL; cited from earlier work
H. influenzae = test system: H. influenzae; design: method as in PMID 28223069; settings: cited from earlier work
[15] = liquid phase, 37 °C, 24 h, read-out: Minimal Inhibitory Concentration, Broth
[16] = vapor phase, 37 °C, 24 h, read-out: Minimal Inhibitory Concentration, Agar
[17] = vapor phase, weight of volatile agent per volume unit of microtube, read-out: Minimal Inhibitory Concentration, Agar
[18] = ATCC29213, liquid phase, 37 °C, 24 h, read-out: Minimal Inhibitory Concentration, Broth
[19] = ATCC29213, vapor phase, 37 °C, 24 h, read-out: Minimal Inhibitory Concentration, Agar
[20] = ATCC29213, vapor phase, weight of volatile agent per volume unit of microtube, read-out: Minimal Inhibitory Concentration, Agar
[21] = ATCC49247, liquid phase, 37 °C, 24 h, read-out: Minimal Inhibitory Concentration, Broth
[22] = ATCC49247, vapor phase, 37 °C, 24 h, read-out: Minimal Inhibitory Concentration, Agar
[23] = ATCC49247, vapor phase, weight of volatile agent per volume unit of microtube, read-out: Minimal Inhibitory Concentration, Agar

SMILES | IC50 [1] | level of cytotoxic effect (WHO classification) [1] | TI [1] | x¯ -MIC (respiratory pathogens) | MIC [5, 15] | MIC [5, 16] | MIC [5, 17] | MIC [6, 18] | MIC [6, 19] | MIC [6, 20] | MIC [7, 15] | MIC [7, 16] | MIC [7, 17] | MIC [8, 21] | MIC [8, 22] | MIC [8, 23] | also measured
CCC1=C[C@@H]2CN(C1)Cc1c([nH]c3ccccc13)[C@@](C(=O)OC)(c1cc3c(cc1OC)N(C)[C@H]1[C@@](O)(C(=O)OC)[C@H](OC(C)=O)[C@]4(CC)C=CCN5CC[C@]31[C@@H]54)C2 [vinorelbin, reference compound] |  |  |  |  |  |  |  |  |  |  |  |  |  |  |  |  | IC80 ± SD ([1]; 80% inhibitory concentration of proliferation, 72 h, plates sealed with EVA capmat): >10 mg/L; IC50 ± SD ([1]; half maximal inhibitory concentration of proliferation, 72 h, plates sealed with EVA capmat): 0.54 ± 0.26 mg/L (≈ 0.693 µM)
CC(C)c1cccc(=O)c(O)c1 [β-thujaplicin] | 4.15 ± 0.45 mg/L (≈ 25.3 µM) | moderate toxicity | 3.36 | 64 mg/L | 64 mg/L (≈ 390 µM) | 1020 mg/L (≈ 6240 µM) | 640 mg/L (≈ 3900 µM) | 64 mg/L (≈ 390 µM) | 512 mg/L (≈ 3120 µM) | 320 mg/L (≈ 1950 µM) | 64 mg/L (≈ 390 µM) | 1020 mg/L (≈ 6240 µM) | 640 mg/L (≈ 3900 µM) | 64 mg/L (≈ 390 µM) | 512 mg/L (≈ 3120 µM) | 320 mg/L (≈ 1950 µM) | growth-inhibitory effect in the gaseous phase (oral microorganisms): certain level of growth-inhibitory effect; MIC (S. pneumoniae [2]): 0.3 to 1 mg/L; IC80 at 72 h [3]: 215 ± 9.71 mg/L (≈ 1310 µM); MIC (S. pyogenes): 0.3 to 1 mg/L; IC50 [4]: 0.26 to 12.32 mg/L; Minimal Inhibitory Concentration, Agar ([5]; vapor phase, 37 °C, 24 h): low antibacterial efficacy; Minimal Inhibitory Concentration, Agar ([7]; vapor phase, 37 °C, 24 h): low antibacterial efficacy; MIC (S. aureus [9]; various strains of S. aureus): 12.5 to 160 mg/L
CC1=CC(=O)C(C(C)C)=CC1=O [thymoquinone] | 1.21 ± 0.24 mg/L (≈ 7.37 µM) | toxic | 1.00 | 15 mg/L | 32 mg/L (≈ 195 µM) | 32 mg/L (≈ 195 µM) | 20 mg/L (≈ 122 µM) | 8 mg/L (≈ 48.7 µM) | 16 mg/L (≈ 97.4 µM) | 10 mg/L (≈ 60.9 µM) | 16 mg/L (≈ 97.4 µM) | 16 mg/L (≈ 97.4 µM) | 10 mg/L (≈ 60.9 µM) | 4 mg/L (≈ 24.4 µM) | 8 mg/L (≈ 48.7 µM) | 5 mg/L (≈ 30.4 µM) | MIC, liquid phase (S. pneumoniae [10]; liquid phase): 16 mg/L (≈ 97.4 µM); MIC, vapor phase (S. pneumoniae [10]; vapor phase): 32 mg/L (≈ 195 µM); vapor activity [11]: very potent vapor activity; IC50 [12]: 1.70 mg/L (≈ 10.4 µM); IC80 at 72 h ([3]; MRC-5 normal lung fibroblast cells): 15 ± 4.46 mg/L (≈ 91.3 µM); MIC, liquid phase (S. aureus [13]; liquid phase): 16 mg/L (≈ 97.4 µM); MIC, vapor phase (S. aureus [13]; vapor phase): 16 mg/L (≈ 97.4 µM); effect on viability [14]: did not alter the viability; MIC (S. aureus [9]; S. aureus ATCC 29213 and ATCC 25923): 8 mg/L (≈ 48.7 µM); MIC, liquid phase (H. influenzae; liquid phase): 8 mg/L (≈ 48.7 µM); MIC, vapor phase (H. influenzae; vapor phase): 8 mg/L (≈ 48.7 µM)
CC1(C)S[C@@H]2[C@H](NC(=O)[C@H](N)c3ccc(O)cc3)C(=O)N2[C@H]1C(=O)O [amoxicillin, reference compound] |  |  |  |  |  |  |  |  |  |  | 0.25 mg/L (≈ 0.684 µM) |  |  |  |  |  | 
